How the values were obtained:
Acetylcholinesterase = Acetylcholinesterase (Homo sapiens, UniProt P22303); assay: Inhibition of human erythrocyte AChE using S-acetylthiocholine iodide as substrate preincubated for 20 mins followed by substrate addition measured every 30 secs for 1 hr by Ellman's method
SMMC-7721 = assay: Cytotoxicity against human SMMC7721 cells assessed as reduction in cell viability after 48 hrs by MTS assay; format: functional, cell-based; details: SMMC-7721, 48 h

Sequence of Acetylcholinesterase (P22303 whole entry): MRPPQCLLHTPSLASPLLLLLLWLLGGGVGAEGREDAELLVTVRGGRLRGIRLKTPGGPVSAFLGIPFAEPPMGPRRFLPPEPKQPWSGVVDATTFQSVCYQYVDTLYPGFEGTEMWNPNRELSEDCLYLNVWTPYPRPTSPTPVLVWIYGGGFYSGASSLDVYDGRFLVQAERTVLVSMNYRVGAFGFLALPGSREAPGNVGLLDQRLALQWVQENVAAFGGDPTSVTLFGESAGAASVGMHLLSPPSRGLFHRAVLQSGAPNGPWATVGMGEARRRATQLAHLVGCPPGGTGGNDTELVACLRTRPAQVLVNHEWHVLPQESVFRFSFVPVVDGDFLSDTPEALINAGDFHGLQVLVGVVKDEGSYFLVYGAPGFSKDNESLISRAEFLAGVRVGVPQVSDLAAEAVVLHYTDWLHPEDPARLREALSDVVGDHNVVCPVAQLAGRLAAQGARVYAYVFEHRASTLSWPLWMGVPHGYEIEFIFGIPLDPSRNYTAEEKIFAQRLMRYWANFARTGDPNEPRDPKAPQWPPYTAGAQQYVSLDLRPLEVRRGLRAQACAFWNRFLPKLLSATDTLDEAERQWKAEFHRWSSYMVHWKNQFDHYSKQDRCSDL

Compound	IC50 (Acetylcholinesterase)	IC50 (SMMC-7721)
CC(C)=CCC[C@]1(C)[C@@H](CC=C(C)C)C[C@]2(CC=C(C)C)C(=O)C3=C(O[C@H](C(C)(C)O)[C@H]3O)[C@@]1(C(=O)C(C)C)C2=O	8.83 µM	
COC(C)(C)/C=C/C[C@]1(C)[C@@H](CC=C(C)C)C[C@]2(CC=C(C)C)C(=O)C3=C(O[C@H](C(C)(C)O)C3)[C@@]1(C(=O)C(C)C)C2=O	3.98 µM	
CC(C)=CCC[C@]1(C)[C@@H](CC=C(C)C)C[C@@]2(CC=C(C)C)C(=O)[C@]1(C(=O)C(C)C)C(=O)C1=C2O[C@@H](C(C)(C)O)[C@@H]1O	11.3 µM	
C=C(C)[C@@H](O)CC[C@]1(C)[C@@H](CC=C(C)C)C[C@]2(CC=C(C)C)C(=O)C3=C(O[C@H](C(C)(C)O)C3)[C@@]1(C(=O)C(C)C)C2=O	10.7 µM	
CC(=O)[C@@]12C(=O)C(CC=C(C)C)=C3O[C@H](C(C)(C)O)C[C@]3(C[C@H](CC=C(C)C)[C@@]1(C)CCC=C(C)C)C2=O	8.75 µM	10 µM
CC(C)=CC[C@H]1C[C@@]2(CC=C(C)C)C(=O)[C@](C(=O)C(C)C)(C(=O)C3=C2O[C@H](C(C)(C)O)C3)[C@]1(C)CCC(=O)C(C)C	10.9 µM	
COC(C)(C)/C=C/C[C@]1(C)[C@@H](CC=C(C)C)C[C@]2(CC=C(C)C)C(=O)C3=C(O[C@@H](C(C)(C)O)C3)[C@@]1(C(=O)C(C)C)C2=O	7.17 µM	
C=C(C)[C@@H](O)CC[C@]1(C)[C@@H](CC=C(C)C)C[C@]23C[C@@H](C(C)(C)O)OC2=C(CC=C(C)C)C(=O)[C@@]1(C(=O)C(C)C)C3=O	9.13 µM	
C=C(C)[C@H](O)CC[C@]1(C)[C@@H](CC=C(C)C)C[C@@]2(CC=C(C)C)C(=O)[C@]1(C(=O)C(C)C)C(=O)C1=C2O[C@H](C(C)(C)O)C1	26.4 µM	9.1 µM
C=C(C)[C@H](O)CC[C@]1(C)[C@@H](CC=C(C)C)C[C@]2(CC=C(C)C)C(=O)C3=C(O[C@H](C(C)(C)O)C3)[C@@]1(C(=O)C(C)C)C2=O	19.6 µM	
CC(C)=CCC[C@]1(C)[C@@H](CC=C(C)C)C[C@]2(CC=C(C)C)C(=O)C3=C(O[C@@H](C(C)(C)O)[C@@H]3O)[C@@]1(C(=O)C(C)C)C2=O	12.6 µM	
CC(C)=CCC1=C2O[C@H](C(C)(C)O)C[C@@]23C[C@H](CC=C(C)C)[C@@](C)(CCC(=O)C(C)C)[C@@](C(=O)C(C)C)(C1=O)C3=O	24.3 µM	
C=C(C)[C@H](O)CC[C@]1(C)[C@@H](CC=C(C)C)C[C@@]2(CC=C(C)C)C(=O)[C@]1(C(=O)C(C)C)C(=O)C1=C2O[C@@H](C(C)(C)O)C1	25.1 µM	
CC(C)=CCC[C@]1(C)[C@@H](CC=C(C)C)C[C@@]2(CC=C(C)C)C(=O)[C@]1(C(=O)C(C)C)C(=O)C1=C2O[C@H](C(C)(C)O)[C@H]1O	18.6 µM	

Source: ChEMBL document CHEMBL4118038, “Tricyclic Polyprenylated Acylphloroglucinols from St John's Wort, Hypericum perforatum” (J Nat Prod, 2017)
